Reference: article PMC10892719 (Pharmaceutics, 2024)

Assays:
[1] = target: T1, equine butyrylcholinesterase (eqBChE) (Equus caballus, UniProt P81908); assay: BChE inhibition, adapted Ellman method; format: biochemical; settings: for SI (selectivity index): IC50 (AChE)/IC50 (BChE); for IC50: eqBChE, mean of two independent experiments ± SD, read-out: BChE Inhib IC50
T1 construct: purchased Sigma-Aldrich (Steinheim, Germany)
Experimental: The enzyme inhibition of electric eel acetylcholinesterase (eeAChE) and equine butyrylcholinesterase (eqBChE) by our compounds was evaluated through an adaptation of Elmman´s method using reagents from Sigma-Aldrich (Steinheim, Germany). Stock solutions of each compound (1 mg) in MeOH (1 mL) were prepared and then working solutions for each ligand were obtained by the corresponding dilution of the stock solutions. A control measurement with 5 replicates (without ligand) and a calibration curve of 5 points with 3 replicates per point was performed. The preparation of each solution involved fixed volumes of 4-(2-hydroxyethyl)-1-piperazine-ethanesulfonic acid (HEPES) and cholinesterase (eeAChE or eqBChE) with different volumes of ligand solution, and it was left to rest for 15 min immediately after adding the cholinesterase. A blank solution containing HEPES and MeOH was also prepared at the same time. […] The slope for each calibration point (absorbance versus reaction time) was determined and the inhibition for each compound was calculated by using the following equation: %Inhibition=100−(vi/v0×100) where vi is the reaction rate (slope) for each point of the calibrate with ligand and v0 is the initial reaction rate (slope) for the control point (without ligand). […] Experiments were performed twice for each compound.

[2] = system: SH-SY5Y cells; assay: Neuroprotection against iron/ascorbate-induced toxicity, MTT; format: cell-based, human; settings: ferrous sulfate 5 mM and L-ascorbic acid 2.5 mM, 24 h, optimized concentration of each compound
Experimental: (§1) Cell viability, following treatment with the compounds, was determined using the colorimetric MTT (3-(4,5-dimethylthiazol-2-yl)-2,5-diphenyltetrazolium bromide) assay. The tested compounds (5a1-3, 5b1-3, 5c1-3) were dissolved in DMSO to produce stock solutions of 25 mM and stored at −20 °C. A concentration screening was performed for 0.5 µM to 20 µM final concentrations to choose the highest nontoxic concentration. SH-SY5Y human neuroblastoma cell line (ATCC-CRL-2266) was cultured in Dulbecco’s modified Eagle’s medium (DMEM) (Gibco-Invitrogen, Life Technologies Ltd., Waltham, MA, USA) with heat-inactivated fetal calf serum (10%), penicillin (50 U/mL) and streptomycin (50 µg/mL) at 37 °C with 5% CO2. Cells were plated at 0.15 × 10^6 cells/mL one day prior to the start of the experiment. The cells were then incubated with the appropriate concentration of the compounds for 24 h. After the incubation period, the cells were washed once with PBS and incubated with 200 µL MTT (0.5 mg/mL) for 2 h at 37 °C with 5% CO2. During this period, cellular dehydrogenase successfully metabolized MTT into formazan, which was then solubilized using 200 µL of 0.04 M HCl/isopropanol. Absorbance was measured at 570 nm.
To test whether the compounds have a protective effect against toxicity induced by Aβ1-42 or iron/ascorbate, the cells were pre-incubated for 1 h with each compound, followed by the addition of Aβ1-42 or iron/ascorbate and incubation for an additional 24 h. Aβ1-42 (Bachem, Torrance, CA, USA) was prepared in sterile water to produce a stock solution of 443 µM and added to the cells at a final concentration of 1 µM. […] All data are expressed as mean ± SEM of at least three independent experiments performed in duplicate. […]
Figure 5 Neuroprotective effect of RIV-IND compounds against cellular toxicity induced by iron/ascorbate (Fe/Asc) measured by MTT reduction ability on SH-SY5Y cells pretreated with iron/ascorbate for one hour, followed by a 24 h incubation with the optimized concentration of each compound. […]

[3] = system: SH-SY5Y cells; assay: Cell viability dose-response screening, MTT; format: cell-based, human
Experimental: as §1
The new RIV-IND hybrids were tested to determine their protective role in the toxicity induced by either Aβ1-42 peptides or iron/ascorbate. SH-SY5Y cells were incubated with a set of concentrations of each of the compounds and a dose–response curve was constructed to select the highest nontoxic concentration.
Figure 3 Dose–response screening of RIV-IND compounds 5a1-3, 5b1-3 and 5c1-3 measured by MTT reduction ability on SH-SY5Y cells treated with different concentrations of the compounds for 24 h. Results are expressed relatively to untreated cells, with the mean ± standard error of the mean (SEM) derived from three independent experiments. * p < 0.05; ** p < 0.01; *** p < 0.001 compared to untreated cells. (The dot line indicates 100% cellular viability).

T1 sequence (P81908 whole entry): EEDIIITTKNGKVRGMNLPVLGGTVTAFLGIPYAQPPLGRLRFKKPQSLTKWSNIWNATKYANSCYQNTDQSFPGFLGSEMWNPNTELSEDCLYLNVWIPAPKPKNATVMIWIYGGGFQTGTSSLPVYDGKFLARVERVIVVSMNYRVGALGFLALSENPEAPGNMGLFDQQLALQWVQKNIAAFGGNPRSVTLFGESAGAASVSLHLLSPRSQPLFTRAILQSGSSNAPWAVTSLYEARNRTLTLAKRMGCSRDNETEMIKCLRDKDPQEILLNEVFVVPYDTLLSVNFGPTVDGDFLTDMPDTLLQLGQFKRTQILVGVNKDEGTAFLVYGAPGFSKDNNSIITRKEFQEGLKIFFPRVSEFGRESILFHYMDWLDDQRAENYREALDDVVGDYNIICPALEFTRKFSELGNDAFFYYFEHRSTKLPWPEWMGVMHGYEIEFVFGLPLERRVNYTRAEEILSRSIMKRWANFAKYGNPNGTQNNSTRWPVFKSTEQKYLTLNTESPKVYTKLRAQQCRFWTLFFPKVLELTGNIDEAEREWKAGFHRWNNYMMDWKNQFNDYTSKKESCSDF

CCN(C)C(=O)Oc1cccc(NC(=O)c2cc3cccc(O)c3[nH]2)c1 [Compound 5a3, 3-(7-Hydroxy-1H-indole-2-carboxamido)phenyl ethyl(methyl)carbamate] was tested, and the “SI (selectivity index)” value [1] was 1.05, the IC50 [1] was 10.4 ± 0.4 µM and the “neuroprotective effect against toxicity induced by iron/ascorbate” value [2] was “also present a neuroprotective effect”. For the same compound, the highest nontoxic concentration ([3]; 24 h, screening 0.5 µM to 20 µM) was 2.5 µM.
For CCN(C)C(=O)Oc1cccc(CNC(=O)c2cc3ccccc3[nH]2)c1 [Compound 5b1, 3-((1H-indole-2-carboxamido)methyl)phenyl ethylmethylcarbamate], the “SI (selectivity index)” value [1] was 9.4, the IC50 [1] was 8.3 ± 0.1 µM and the “neuroprotective effect against toxicity induced by iron/ascorbate” value [2] was “also present a neuroprotective effect”. It also gave a highest nontoxic concentration ([3]; when used with Aβ1-42) of 2.5 µM and a highest nontoxic concentration ([3]; when used with iron/ascorbate) of 1 µM.
